Columns and labels:
[1] = molecular target: Glycogen synthase kinase-3 beta (Homo sapiens, UniProt P49841); details: at 10 µM
[2] = molecular target: NT-3 growth factor receptor (Homo sapiens, UniProt Q16288); assay: Selectivity interaction (KinomeScan (DiscoverX)) EUB0000092b NTRK3; details: at 10 µM
[3] = molecular target: Atypical kinase COQ8A, mitochondrial (Homo sapiens, UniProt Q8NI60); assay: Selectivity interaction (KinomeScan (DiscoverX)) EUB0000092b ADCK3; details: at 10 µM
[4] = molecular target: T1, Mitogen-activated protein kinase kinase kinase 3 (Homo sapiens) (UniProt Q99759); assay: Selectivity interaction (KinomeScan (DiscoverX)) EUB0000092b MAP3K3; details: at 10 µM
T1 sequence (whole entry): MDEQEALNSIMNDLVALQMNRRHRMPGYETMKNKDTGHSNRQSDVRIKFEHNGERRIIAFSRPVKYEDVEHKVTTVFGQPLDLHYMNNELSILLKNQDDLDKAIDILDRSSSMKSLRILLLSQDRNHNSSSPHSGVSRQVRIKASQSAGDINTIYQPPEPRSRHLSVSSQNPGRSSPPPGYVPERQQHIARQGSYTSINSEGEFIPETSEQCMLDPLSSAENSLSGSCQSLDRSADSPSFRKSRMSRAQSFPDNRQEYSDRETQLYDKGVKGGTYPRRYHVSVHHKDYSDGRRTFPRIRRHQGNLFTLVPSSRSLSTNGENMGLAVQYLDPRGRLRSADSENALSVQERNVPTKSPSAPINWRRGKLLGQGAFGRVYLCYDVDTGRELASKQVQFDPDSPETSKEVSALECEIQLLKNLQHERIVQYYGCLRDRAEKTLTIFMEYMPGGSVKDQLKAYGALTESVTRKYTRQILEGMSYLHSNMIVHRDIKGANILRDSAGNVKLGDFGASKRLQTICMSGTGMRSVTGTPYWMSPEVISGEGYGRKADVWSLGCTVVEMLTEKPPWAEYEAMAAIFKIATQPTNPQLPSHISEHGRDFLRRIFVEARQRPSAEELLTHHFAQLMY

[5] = molecular target: T2, Serine/threonine-protein kinase D1 (Homo sapiens) (UniProt Q15139); assay: Selectivity interaction (KinomeScan (DiscoverX)) EUB0001079a PRKD1; details: at 1 µM
T2 sequence (whole entry): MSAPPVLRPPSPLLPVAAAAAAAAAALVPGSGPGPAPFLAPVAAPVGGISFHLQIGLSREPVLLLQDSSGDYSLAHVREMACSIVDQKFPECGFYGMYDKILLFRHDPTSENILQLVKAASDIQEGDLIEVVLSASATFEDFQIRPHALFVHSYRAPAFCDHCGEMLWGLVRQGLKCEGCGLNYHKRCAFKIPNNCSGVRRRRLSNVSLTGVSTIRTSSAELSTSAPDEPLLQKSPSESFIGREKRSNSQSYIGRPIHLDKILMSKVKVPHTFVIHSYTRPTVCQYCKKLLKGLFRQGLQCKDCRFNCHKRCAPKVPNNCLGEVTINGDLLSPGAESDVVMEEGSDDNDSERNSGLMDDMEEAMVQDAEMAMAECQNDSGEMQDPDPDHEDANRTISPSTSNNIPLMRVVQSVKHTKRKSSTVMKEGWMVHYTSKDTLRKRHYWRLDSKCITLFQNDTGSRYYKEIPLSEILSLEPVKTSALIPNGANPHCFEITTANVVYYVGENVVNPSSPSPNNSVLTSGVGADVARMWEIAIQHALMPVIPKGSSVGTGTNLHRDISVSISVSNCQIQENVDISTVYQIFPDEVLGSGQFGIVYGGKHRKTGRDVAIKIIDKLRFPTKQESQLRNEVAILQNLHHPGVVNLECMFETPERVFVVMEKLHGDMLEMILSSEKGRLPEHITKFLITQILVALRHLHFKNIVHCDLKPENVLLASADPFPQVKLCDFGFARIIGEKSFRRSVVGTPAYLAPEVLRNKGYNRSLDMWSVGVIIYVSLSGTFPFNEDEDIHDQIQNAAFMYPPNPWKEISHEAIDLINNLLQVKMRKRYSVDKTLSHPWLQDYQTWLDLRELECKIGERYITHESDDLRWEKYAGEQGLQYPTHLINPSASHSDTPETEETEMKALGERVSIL

[6] = molecular target: Serine/threonine-protein kinase 38-like (Homo sapiens) (UniProt Q9Y2H1); assay: Selectivity interaction (Kinase panel (KiNativ target engagement assay in Jurkat cells)) EUB0001635a STK38L; format: cell-based; details: Selectivity number of off-targets 0.0, Selectivity number of targets 233.0, Source Knowledge https://www.sciencedirect.com/science/article/pii/S2451945619300674?via%3Dihub, at 1 µM
[7] = molecular target: MAP kinase-interacting serine/threonine-protein kinase 2 (Homo sapiens, UniProt Q9HBH9); details: at 10 µM
[8] = molecular target: [Pyruvate dehydrogenase (acetyl-transferring)] kinase isozyme 1, mitochondrial (Homo sapiens, UniProt Q15118); assay: Selectivity interaction (Kinase panel (Invitrogen)) EUB0000639a PDK1; details: at 200 nM
[9] = molecular target: Serine/threonine-protein kinase PLK1 (Homo sapiens, UniProt P53350); assay: Selectivity interaction (KinomeScan (DiscoverX)) EUB0000607a PLK1; details: at 10 µM
[10] = molecular target: Serine/threonine-protein kinase SIK3 (Homo sapiens) (UniProt Q9Y2K2); assay: Selectivity interaction (KinomeScan (DiscoverX)) EUB0000045b SIK3
[11] = molecular target: Ribosomal protein S6 kinase beta-1 (Homo sapiens, UniProt P23443); assay: Selectivity interaction (Kinase panel (literature)) EUB0001199aCl RPS6KB1; details: at 1 µM
[12] = molecular target: T3, Dual specificity mitogen-activated protein kinase kinase 4 (Homo sapiens) (UniProt P45985); assay: Selectivity interaction (KinomeScan (DiscoverX)) EUB0001619a MAP2K4; details: at 1 µM
T3 sequence (whole entry): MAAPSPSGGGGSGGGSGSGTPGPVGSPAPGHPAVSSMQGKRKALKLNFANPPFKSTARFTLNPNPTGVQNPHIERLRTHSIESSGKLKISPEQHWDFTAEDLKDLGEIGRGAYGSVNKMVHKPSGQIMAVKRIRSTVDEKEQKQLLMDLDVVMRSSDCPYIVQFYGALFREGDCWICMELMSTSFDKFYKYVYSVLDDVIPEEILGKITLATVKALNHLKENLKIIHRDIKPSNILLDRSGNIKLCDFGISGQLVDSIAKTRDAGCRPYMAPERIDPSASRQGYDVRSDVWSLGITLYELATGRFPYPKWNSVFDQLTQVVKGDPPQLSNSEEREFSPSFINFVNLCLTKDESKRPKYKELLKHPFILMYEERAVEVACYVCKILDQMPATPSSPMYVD

Serine/threonine-protein kinase SIK3 (Homo sapiens), sequence (Q9Y2K2 whole entry, looked up): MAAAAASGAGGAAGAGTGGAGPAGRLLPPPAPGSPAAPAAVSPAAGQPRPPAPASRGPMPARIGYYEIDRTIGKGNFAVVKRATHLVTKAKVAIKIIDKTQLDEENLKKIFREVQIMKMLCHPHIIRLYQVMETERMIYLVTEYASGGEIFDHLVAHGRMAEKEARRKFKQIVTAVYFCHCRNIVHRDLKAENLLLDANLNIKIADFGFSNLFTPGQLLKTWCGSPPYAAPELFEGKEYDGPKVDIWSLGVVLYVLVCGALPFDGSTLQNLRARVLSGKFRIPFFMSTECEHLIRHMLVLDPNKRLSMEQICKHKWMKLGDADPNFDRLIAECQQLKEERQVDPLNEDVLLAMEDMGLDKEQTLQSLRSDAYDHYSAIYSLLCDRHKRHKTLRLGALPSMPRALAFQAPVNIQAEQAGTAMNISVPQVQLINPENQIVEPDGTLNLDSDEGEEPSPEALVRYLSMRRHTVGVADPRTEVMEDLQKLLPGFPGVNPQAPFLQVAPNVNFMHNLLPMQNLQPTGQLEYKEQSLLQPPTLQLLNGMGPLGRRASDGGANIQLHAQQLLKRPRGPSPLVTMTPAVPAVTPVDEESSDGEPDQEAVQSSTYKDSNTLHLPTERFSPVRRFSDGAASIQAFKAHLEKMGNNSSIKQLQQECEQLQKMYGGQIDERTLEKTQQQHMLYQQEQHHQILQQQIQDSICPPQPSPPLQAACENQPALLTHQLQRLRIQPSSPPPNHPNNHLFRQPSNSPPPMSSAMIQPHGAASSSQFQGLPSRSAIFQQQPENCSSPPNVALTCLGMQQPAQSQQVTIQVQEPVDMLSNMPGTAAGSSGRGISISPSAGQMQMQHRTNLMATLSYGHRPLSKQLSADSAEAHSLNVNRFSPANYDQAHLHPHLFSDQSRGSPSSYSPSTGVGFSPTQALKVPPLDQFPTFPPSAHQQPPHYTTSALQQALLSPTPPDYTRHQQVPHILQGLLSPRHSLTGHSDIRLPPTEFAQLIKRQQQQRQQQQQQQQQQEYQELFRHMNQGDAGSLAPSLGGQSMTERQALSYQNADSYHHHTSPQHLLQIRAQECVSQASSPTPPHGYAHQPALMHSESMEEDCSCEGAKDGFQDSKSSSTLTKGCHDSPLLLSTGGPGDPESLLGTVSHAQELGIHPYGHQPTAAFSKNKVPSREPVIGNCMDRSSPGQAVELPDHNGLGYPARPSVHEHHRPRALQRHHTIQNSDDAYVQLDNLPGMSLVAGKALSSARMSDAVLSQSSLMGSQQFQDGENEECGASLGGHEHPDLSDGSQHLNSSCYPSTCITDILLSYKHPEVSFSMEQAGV
Ribosomal protein S6 kinase beta-1, sequence (P23443 whole entry, looked up): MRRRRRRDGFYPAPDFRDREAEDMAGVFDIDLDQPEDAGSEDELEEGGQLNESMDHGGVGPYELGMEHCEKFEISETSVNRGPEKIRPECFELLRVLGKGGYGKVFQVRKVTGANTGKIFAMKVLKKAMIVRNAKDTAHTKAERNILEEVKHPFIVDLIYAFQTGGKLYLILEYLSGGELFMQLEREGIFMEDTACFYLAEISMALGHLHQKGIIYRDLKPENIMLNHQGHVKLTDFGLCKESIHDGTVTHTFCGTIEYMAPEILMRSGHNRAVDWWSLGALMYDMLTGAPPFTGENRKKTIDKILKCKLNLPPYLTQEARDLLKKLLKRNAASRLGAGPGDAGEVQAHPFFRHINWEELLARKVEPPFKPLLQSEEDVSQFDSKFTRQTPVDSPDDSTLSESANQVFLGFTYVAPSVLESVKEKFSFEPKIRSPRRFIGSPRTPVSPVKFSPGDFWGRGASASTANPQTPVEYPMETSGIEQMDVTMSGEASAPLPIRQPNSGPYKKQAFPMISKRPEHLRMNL
NT-3 growth factor receptor, sequence (Q16288 32-839 limits assumed): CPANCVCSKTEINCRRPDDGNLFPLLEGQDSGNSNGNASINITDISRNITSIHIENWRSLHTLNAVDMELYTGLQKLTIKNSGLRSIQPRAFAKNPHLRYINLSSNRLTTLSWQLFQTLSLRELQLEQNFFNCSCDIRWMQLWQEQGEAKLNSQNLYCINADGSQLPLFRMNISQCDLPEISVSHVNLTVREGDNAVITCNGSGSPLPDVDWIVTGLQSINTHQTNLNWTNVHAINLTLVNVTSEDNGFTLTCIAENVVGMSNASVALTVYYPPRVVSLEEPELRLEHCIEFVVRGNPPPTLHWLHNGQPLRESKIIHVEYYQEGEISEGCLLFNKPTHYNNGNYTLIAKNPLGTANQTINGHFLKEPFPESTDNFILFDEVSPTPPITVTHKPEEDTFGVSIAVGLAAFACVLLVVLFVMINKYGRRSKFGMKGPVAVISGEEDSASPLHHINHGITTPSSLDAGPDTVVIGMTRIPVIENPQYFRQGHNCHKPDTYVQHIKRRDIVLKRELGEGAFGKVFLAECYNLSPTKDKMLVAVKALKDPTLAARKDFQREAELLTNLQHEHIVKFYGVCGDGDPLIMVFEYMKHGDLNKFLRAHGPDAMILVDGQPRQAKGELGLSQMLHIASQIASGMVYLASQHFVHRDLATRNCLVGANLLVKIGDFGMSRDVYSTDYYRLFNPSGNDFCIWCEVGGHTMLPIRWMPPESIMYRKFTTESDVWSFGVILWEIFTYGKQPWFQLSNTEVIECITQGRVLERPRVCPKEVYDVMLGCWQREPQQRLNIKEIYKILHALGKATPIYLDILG
Serine/threonine-protein kinase PLK1, sequence (P53350 whole entry): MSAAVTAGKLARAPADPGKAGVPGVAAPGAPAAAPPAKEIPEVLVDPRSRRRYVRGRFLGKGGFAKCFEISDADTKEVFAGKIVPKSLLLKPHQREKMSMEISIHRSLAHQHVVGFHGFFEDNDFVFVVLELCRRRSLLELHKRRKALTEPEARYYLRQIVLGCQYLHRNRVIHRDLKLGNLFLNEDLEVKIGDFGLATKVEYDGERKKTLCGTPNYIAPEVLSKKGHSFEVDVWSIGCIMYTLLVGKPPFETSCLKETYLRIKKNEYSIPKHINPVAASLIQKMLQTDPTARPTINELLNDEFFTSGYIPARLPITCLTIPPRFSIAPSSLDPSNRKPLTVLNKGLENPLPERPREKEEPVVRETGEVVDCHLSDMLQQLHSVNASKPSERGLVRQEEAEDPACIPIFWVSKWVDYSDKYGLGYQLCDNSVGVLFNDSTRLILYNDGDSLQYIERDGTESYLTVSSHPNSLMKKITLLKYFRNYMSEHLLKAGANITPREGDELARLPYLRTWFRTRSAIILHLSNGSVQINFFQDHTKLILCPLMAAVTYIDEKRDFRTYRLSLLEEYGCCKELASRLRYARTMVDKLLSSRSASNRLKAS
MAP kinase-interacting serine/threonine-protein kinase 2, sequence (Q9HBH9 whole entry, looked up): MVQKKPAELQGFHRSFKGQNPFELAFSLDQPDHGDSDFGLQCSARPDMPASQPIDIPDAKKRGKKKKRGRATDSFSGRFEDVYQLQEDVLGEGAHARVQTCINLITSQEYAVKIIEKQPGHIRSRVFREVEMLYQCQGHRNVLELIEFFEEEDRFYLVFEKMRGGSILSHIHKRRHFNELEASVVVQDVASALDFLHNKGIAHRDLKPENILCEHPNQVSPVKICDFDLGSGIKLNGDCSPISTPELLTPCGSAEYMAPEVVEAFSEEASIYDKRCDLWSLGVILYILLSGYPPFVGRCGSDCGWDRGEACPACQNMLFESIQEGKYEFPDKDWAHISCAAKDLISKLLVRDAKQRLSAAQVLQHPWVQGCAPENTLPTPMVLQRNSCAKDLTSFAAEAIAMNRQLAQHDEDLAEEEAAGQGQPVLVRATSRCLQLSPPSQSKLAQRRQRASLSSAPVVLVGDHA
Glycogen synthase kinase-3 beta, sequence (P49841 whole entry, looked up): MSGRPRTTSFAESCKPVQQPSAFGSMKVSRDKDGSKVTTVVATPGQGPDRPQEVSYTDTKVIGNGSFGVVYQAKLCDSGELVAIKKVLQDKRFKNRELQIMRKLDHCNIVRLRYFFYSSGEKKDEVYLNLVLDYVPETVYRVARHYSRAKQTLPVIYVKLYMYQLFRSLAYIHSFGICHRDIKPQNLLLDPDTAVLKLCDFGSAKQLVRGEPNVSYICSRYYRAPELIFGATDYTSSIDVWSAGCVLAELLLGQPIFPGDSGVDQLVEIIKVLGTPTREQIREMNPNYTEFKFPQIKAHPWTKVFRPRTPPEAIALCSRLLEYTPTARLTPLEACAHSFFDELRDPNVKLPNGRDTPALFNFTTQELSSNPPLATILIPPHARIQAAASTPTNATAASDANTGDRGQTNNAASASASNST
Atypical kinase COQ8A, mitochondrial, sequence (Q8NI60 163-647 limits assumed): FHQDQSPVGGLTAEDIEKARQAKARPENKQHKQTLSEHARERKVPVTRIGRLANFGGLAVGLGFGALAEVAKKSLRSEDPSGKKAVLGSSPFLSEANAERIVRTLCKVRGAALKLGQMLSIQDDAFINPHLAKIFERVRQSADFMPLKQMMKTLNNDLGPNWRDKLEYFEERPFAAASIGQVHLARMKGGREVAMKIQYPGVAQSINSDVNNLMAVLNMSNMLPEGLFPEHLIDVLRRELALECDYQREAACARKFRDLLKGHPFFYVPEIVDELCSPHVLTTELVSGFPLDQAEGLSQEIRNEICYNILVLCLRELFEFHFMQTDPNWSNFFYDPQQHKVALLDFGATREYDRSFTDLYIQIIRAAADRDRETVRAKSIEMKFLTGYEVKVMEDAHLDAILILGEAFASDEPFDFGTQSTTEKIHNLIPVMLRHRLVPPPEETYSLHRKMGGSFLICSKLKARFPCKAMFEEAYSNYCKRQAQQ

Question: Which % of control [1] does the source give for CCN(CC)CCCCNc1ncc2cc(-c3cc(OC)cc(OC)c3)c(NC(=O)NC(C)(C)C)nc2n1 here?
Answer: 100%

Question: Which results are given for CCC(=O)N1CCN(c2ccc(-n3c(=O)ccc4cnc5ccc(-c6cnc7ccccc7c6)cc5c43)cc2C(F)(F)F)CC1?
Answer: % of control [2]: 100%; % of control [3]: 17%; % of control [4]: 75%

Question: With Nc1cnc(N2CCc3cc(S(=O)(=O)Nc4c(F)cc(Cl)cc4F)cc(N4CCCC4=O)c32)nc1 [TP-020n] as the compound, how does the % of control [5] read?
Answer: 83%

Question: For C=CC(=O)Nc1ccc(C(=O)Nc2[nH]nc3c2CN(C(=O)N[C@H](CN(C)C)c2ccccc2)C3(C)C)cc1, which % of engagement [6] is on record?
Answer: 3.8%

Question: Which % of control [7] does the source give for Cc1cc([C@@H](C)Nc2ccccc2C(=O)O)c2nc(N3CCOCC3)cc(=O)n2c1 [AZD-6482] here?
Answer: 92%

Question: For CC[C@@H]1[C@H](F)C(=O)N[C@@H]1COc1nccc2cc(C(N)=O)c(OC)cc12 [ZIMLOVISERTIB], which % of inhibition [8] is on record?
Answer: 15.8%

Question: CNC(=O)Nc1ccc(-c2nc(N3CC4CCC(C3)O4)c3cnn(C4CCC5(CC4)OCCO5)c3n2)cc1 was tested. Which % of control [9] did it give?
Answer: 77%

Question: Which % of control ([10]; at 1 µM) does the source give for C=CC(=O)Nc1cc(-n2c(=O)ccc3cnc4ccc(-c5ccc(NS(C)(=O)=O)cc5)cc4c32)ccc1C here?
Answer: 100%

Question: What about the % of control ([10]; at 10 µM) of the same compound?
Answer: 100%

Question: How did the % of inhibition [11] turn out when CN1Cc2nccc(-c3cn(C)nc3-c3ccc(F)cc3)c2C1=O was run?
Answer: -3%

Question: N#Cc1cccc(-c2c[nH]c3ncnc(N4CCOCC4)c23)c1 was tested. Which % of control [12] did it give?
Answer: 100%
